Test results from patent publication US11571397B2, “Compositions and methods for treating seizure-induced sudden death” (ZOGENIX INTERNATIONAL LIMITED, priority 2018, dated 2023).

Key:
[1] = tested on: DBA mice; settings: cited from earlier work; for seizure-induced respiratory failure and death: DBA mice, dose-dependent
[2] = tested on: DBA/1 mice; assay: Reversal of FFA's anticonvulsant and S-IRA blocking effects by selective 5-HT receptor antagonists in DBA/1 mice; type: in vivo, mouse
Method: (§1) For these experiments, DBA/1 mice (N=287) were used (after subjecting to the established priming procedure to assure consistent susceptibility to S-IRA following AGSz) to assess the effects of fenfluramine on various 5-HT receptors. Seizures were induced using an electrical bell, and resuscitation was accomplished using a rodent respirator (Faingold et al., 2010). At least 24 hours after priming, the mice received FFA (15 mg/kg, i.p.) and were tested for AGSz and S-IRA susceptibility 16 hours later. Thirty minutes prior to AGSz induction, a selective 5-HT receptor antagonist or vehicle was administered to evaluate if a specific receptor contributes to the ability of FFA to block S-IRA. Seizure behaviors were recorded on videotape, quantified, and compared statistically with vehicle-treated negative and FFA-treated positive controls (Chi-Square Test; significance set at p<0.05).
Specifically, the antagonists tested were: the 5-HT1A antagonist WAY100635 (0.1-15 mg/kg); the 5-HT2 antagonist Ritanserin (10-20 mg/kg); the 5-HT3 antagonist Ondansetron (1-3 mg/kg); the 5-HT4 antagonist GR125487 (20-60 mg/kg); the 5-HT5A antagonist SB669551 (10-20 mg/kg); and the 5-HT7 antagonist SB269970 (30-40 mg/kg). Studies investigating the effect of 5-HT6 and 5-HT1a/1b antagonists are also underway.
as §1, with “mice” for “mice (N=287)”

[3] = dietary supplementation, DBA/1 mice

In the case of `CNCCC(Oc1ccc(C(F)(F)F)cc1)c1ccccc1` (centres unmarked) [fluoxetine], the “seizure-induced respiratory failure and death” value [1] is listed as “prevent”.
For `CN[C@H]1CC[C@@H](c2ccc(Cl)c(Cl)c2)c2ccccc21` [sertraline], the “seizure-induced respiratory failure and death” value [1] is given as “prevent”.
For `CN(C)CCN(Cc1ccc(-c2ccc(CNCCc3ccccc3)cc2)cc1)C(=O)CCC1CCCC1` [SB669551], the “effect on FFA's anticonvulsant effect” value ([2]; antagonist at 20 mg/kg, FFA 15 mg/kg) was “blocked”.
In the case of `COc1ccccc1N1CCN(CCN(C(=O)C2CCCCC2)c2ccccn2)CC1` [WAY100635], the “reversal of FFA's effect” value ([2]; antagonist 0.1-15 mg/kg, FFA 15 mg/kg) is reported as “not effective at any dose tested”.
In the case of `CNCC[C@@H](Oc1ccccc1C)c1ccccc1` [atomoxetine], the “seizure-induced respiratory failure and death” value [1] is given as “prevent”.
With `Cc1nc2sccn2c(=O)c1CCN1CCC(=C(c2ccc(F)cc2)c2ccc(F)cc2)CC1` [Ritanserin] the “reversal of FFA's anticonvulsant effect against the severity of AGSz” value (from here on “reversal of FFA's anticonvulsant effect”) ([2]; antagonist 20 mg/kg, FFA 15 mg/kg) was “able to reverse”.
For `CC1CCN(CC[C@H]2CCCN2S(=O)(=O)c2cccc(O)c2)CC1` [SB269970], the “reversal of FFA's anticonvulsant effect” value ([2]; antagonist 30 mg/kg and 40 mg/kg, FFA 15 mg/kg) was “able to reverse”.
For `N[C@@H](Cc1c[nH]c2ccc(O)cc12)C(=O)O` [5-hydroxytryptophan], the S-IRA [1, 3] is given as “blocked” and the “incidence of AGSz behaviors” value [1, 3] is given as “significantly reduced”.
In the case of `COc1ccc(C(CN(C)C)C2(O)CCCCC2)cc1` (centres unmarked) [venlafaxine], the “seizure-induced respiratory failure and death” value [1] is listed as “prevent”.
For `COCCCC/C(=N\OCCN)c1ccc(C(F)(F)F)cc1` [fluvoxamine], the “seizure-induced respiratory failure and death” value [1] is given as “prevent”.
In the case of `COc1[nH]c2ccc(F)cc2c1C(=O)OCC1CCN(CCNS(C)(=O)=O)CC1` [GR125487], the “reversal of the FFA-induced S-IRA blockade” value ([2]; antagonist 30 mg/kg, 30 min before AGSz, FFA 15 mg/kg i.p. 16 h before, p<0.05) is reported as “partial reversal” and the “reversal of FFA's anticonvulsant effect” value ([2]; antagonist 30 and 60 mg/kg, FFA 15 mg/kg) is reported as “able to reverse”.
With `Cc1nccn1CC1CCc2c(c3ccccc3n2C)C1=O` (centres unmarked) [Ondansetron] the “reversal of FFA's effect” value ([2]; antagonist 1-3 mg/kg, FFA 15 mg/kg) was “not effective at any dose tested”.
